Results published in BindingDB's records for doi:10.1016/S1074-5521(99)80084-2 (Institute of Genetics and Molecular and Cellular Biology …, 1999).

Legend:
[1] = molecular target: T1, Retinoic acid receptor alpha [200-419]/gamma [183-417] (Homo sapiens, UniProt P10276+P13631); assay: Competitive Assay; settings: pH 8; 4 °C
T1 construct: 200-419; 183-417
T1 sequence (P13631 whole entry): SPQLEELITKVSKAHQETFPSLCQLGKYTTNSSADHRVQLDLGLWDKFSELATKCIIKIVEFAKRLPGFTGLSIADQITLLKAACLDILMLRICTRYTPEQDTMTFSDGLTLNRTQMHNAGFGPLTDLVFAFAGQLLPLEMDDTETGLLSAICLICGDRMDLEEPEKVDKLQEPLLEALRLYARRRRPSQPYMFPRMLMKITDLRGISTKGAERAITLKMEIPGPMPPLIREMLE
T1 sequence (P10276 whole entry): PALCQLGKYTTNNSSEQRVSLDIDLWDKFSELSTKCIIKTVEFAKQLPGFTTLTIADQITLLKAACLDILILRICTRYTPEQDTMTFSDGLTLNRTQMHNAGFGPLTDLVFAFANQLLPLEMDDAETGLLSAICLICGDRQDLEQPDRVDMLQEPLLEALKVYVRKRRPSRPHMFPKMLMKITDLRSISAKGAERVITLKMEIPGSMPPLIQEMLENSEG
Procedure: (§1) Competitive assay were perform with 5nM tritiated all-trans retinoic acid (t-RA; 5nM) with or without 100-fold excess of non-radioactive t-RA (500nM).

[2] = molecular target: T2, Retinoic acid receptor alpha [200-419] (Homo sapiens, UniProt P10276); assay: Competitive Assay; settings: pH 8; 4 °C
T2 construct: 200-419
T2 sequence (P10276 whole entry): T1 sequence (P10276 whole entry)
Procedure: as §1

Row | Ki [1] [nM] | Ki [2] [nM] | SMILES
1 | 1 | 2.5 | CC1(C)CC=C(c2cnc3ccccc3c2)c2cc(C(=O)Nc3ccc(C(=O)O)cc3)ccc21 [BMS614]
2 | 1 | 2 | CC1(C)C(=O)C(C)(C)c2cc(C(=O)Nc3ccc(C(=O)O)cc3)ccc21 [BMS753]
